15 molecules from patent US20140005163A1 (NOVARTIS AG, priority 2010, published 2014) can be followed below.

Molecules are shown by their SMILES. In brackets after ≈: the same amount, converted by molar mass.

One series is described as follows: Solubility at pH 6.8. Format: physicochemical. The settings on record: pH 6.8, aqueous buffer, thermodynamic from solid; read-out: solubility. A digest of the protocol:
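Solubility was measured at pH 6.8 following the cited Zhou et al. (2007) procedure.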

For another series, the target named is T1, PI3K beta (Homo sapiens, UniProt P42338).
T1 construct: for the full-length p110-b subunit are generated and fused by overlapping PCR; p85(iSH2) fusion partner (see partner chain) (N); His tag (C); made in house; host or cells: baculovirus; Tn5 (Trichoplusia ni) or TiniPro insect cells
T1 sequence (P42338 with tags, fused parts or gaps limits assumed): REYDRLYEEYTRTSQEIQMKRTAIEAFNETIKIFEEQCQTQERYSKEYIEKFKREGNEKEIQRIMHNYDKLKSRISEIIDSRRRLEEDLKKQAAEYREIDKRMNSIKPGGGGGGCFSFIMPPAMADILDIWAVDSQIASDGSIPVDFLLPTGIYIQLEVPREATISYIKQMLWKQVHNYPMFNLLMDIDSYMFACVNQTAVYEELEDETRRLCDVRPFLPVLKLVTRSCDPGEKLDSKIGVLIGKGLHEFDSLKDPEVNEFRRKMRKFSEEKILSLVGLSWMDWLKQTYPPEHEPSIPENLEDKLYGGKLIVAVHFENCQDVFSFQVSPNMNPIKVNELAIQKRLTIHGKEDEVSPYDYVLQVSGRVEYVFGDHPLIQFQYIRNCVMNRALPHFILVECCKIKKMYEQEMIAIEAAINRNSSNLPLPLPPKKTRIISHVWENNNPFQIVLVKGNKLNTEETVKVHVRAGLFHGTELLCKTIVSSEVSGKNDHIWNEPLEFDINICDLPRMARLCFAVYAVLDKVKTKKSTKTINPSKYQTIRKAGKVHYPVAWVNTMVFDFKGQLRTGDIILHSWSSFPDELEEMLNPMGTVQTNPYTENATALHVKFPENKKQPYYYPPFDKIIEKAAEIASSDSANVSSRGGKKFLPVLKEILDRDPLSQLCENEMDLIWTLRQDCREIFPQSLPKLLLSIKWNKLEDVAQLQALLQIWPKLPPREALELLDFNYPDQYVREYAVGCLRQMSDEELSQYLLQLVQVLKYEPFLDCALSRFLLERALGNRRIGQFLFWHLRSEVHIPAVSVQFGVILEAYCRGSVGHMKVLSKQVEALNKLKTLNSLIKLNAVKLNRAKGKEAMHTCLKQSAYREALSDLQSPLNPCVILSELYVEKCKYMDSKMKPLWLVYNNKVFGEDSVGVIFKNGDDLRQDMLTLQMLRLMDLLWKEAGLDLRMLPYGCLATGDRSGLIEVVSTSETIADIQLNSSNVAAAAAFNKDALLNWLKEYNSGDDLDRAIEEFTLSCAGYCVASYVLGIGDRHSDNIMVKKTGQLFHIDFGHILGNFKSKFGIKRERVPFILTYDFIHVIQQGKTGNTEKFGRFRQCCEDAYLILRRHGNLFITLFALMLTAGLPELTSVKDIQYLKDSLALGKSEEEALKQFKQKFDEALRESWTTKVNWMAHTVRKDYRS
In words: PI3K beta kinase assay (Kinase-Glo luminescence). Format: biochemical. In short, it runs like this:
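Enzyme: BV949 p85(iSH2)-Gly linker-p110β FL-His, 25 nM. Substrate: PI 10 μg/mL. ATP: 1 μM, added to start. Buffer: Tris pH 7.5 10 mM, MgCl2 3 mM, NaCl 50 mM, CHAPS 0.05%, DTT 1 mM. RT, 60 min. Readout: Kinase-Glo. IC50 by 4-parameter fit.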
On the technique in general: Kinase-Glo measures the ATP left after a reaction by luminescence.

For a further series, the target named is T2, PI3K delta (Homo sapiens, UniProt O00329).
T2 construct: for the full-length p110-d subunit are generated and fused by overlapping PCR; p85(iSH2) fusion partner (see partner chain) (N); His tag (C); made in house; host or cells: baculovirus; Tn5 (Trichoplusia ni) or TiniPro insect cells
T2 sequence (O00329 with tags, fused parts or gaps limits assumed): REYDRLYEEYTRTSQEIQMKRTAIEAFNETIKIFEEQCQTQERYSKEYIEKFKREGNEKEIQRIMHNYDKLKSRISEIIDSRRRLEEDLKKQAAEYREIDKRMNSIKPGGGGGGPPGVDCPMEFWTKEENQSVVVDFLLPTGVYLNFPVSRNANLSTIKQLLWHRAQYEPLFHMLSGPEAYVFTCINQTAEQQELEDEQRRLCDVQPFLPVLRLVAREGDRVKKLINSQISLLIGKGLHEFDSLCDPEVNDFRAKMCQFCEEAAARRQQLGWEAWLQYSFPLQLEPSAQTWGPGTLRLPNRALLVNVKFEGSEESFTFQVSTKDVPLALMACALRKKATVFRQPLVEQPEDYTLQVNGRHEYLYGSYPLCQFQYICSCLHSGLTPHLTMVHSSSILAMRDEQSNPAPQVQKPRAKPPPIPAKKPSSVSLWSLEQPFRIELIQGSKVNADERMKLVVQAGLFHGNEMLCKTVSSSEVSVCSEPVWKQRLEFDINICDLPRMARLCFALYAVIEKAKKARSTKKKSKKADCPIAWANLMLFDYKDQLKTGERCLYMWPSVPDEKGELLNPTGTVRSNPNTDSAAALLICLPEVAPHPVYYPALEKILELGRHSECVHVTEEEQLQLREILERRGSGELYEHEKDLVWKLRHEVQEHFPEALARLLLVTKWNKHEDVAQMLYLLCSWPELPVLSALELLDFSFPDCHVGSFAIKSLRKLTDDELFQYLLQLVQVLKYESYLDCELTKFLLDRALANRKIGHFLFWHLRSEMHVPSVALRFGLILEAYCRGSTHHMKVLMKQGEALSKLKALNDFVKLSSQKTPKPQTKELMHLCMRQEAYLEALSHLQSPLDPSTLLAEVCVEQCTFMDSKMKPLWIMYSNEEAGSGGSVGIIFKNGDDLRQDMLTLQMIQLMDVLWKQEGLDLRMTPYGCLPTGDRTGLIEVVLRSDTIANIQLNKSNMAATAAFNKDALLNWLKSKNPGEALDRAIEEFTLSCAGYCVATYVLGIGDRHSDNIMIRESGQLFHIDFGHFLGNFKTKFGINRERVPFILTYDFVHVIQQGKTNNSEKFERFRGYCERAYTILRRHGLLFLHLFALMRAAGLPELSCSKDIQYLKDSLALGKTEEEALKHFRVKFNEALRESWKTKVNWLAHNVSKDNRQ
Kind of series: PI3K delta kinase assay (Kinase-Glo luminescence). The class given is biochemical. In short, it runs like this: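 Recombinant p85(iSH2)-Gly linker-p110δ full-length construct (BV1060, C-terminal His tag) was used at 10 nM with 10 μg/mL phosphatidylinositol and 1 μM ATP in 10 mM Tris-HCl pH 7.5, 3 mM MgCl2, 50 mM NaCl, 0.05% CHAPS, 1 mM DTT. After 60 min at room temperature, remaining ATP was measured by Kinase-Glo luminescence.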

Series [1] deals with PKB Ser473 phosphorylation in Rat1-myr-HA-p110 beta cells. Kind of series: Reverse protein array assay, PKB Ser473 phosphorylation in Rat1-myr-p110 beta cells. As to conditions: 0.5 h, pAkt Ser473, 30 minutes incubation, read-out: p-PKB IC50. Format: cell-based. A digest of the protocol:
(§1)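 Measured: PKB Ser473 phosphorylation by reverse protein array in Rat1 cells expressing myr-HA-p110 alpha, beta or delta, after 30 min compound treatment at 37 °C with 0.2% DMSO vehicle.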

Series [2] concerns PKB Ser473 phosphorylation in Rat1-myr-HA-p110 delta cells. Kind of series: Reverse protein array assay, PKB Ser473 phosphorylation in Rat1-myr-p110 delta cells. The class given is cell-based. As to conditions: read-out: p-PKB IC50. In short, it runs like this: as §1

For `Cc1nn(CCO)cc1-n1c(=O)n(C)c2cnc3ccc(-c4cncc(N5CCOCC5)c4)cc3c21` [Example 175.3, 1-[1-(2-Hydroxy-ethyl)-3-methyl-1H-pyrazol-4-yl]-3-methyl-8-(5-morpholin-4-yl-pyridin-3-yl)-1,3-dihydro-imidazo[4,5-c]quinolin-2-one], the solubility in the series “Solubility at pH 6.8” is > 486 µg/mL. Moreover, the IC50 at PI3K beta was found to be 559 nM; at PI3K delta, 126 nM; in series [1] it was 692 nM.

As for `CCOc1cc(-c2ccc3ncc4c(c3c2)n(-c2cn(C)nc2C)c(=O)n4C)cnc1COC` [Example 197.1, 1-(1,3-Dimethyl-1H-pyrazol-4-yl)-8-(5-ethoxy-6-methoxymethyl-pyridin-3-yl)-3-methyl-1,3-dihydro-imidazo[4,5-c]quinolin-2-one], in the series “Solubility at pH 6.8”, the solubility is 361 µg/mL (≈ 787 µM). The IC50 was 468 nM on PI3K beta, 35 nM at PI3K delta, 40 nM in series [1] and 132 nM in series [2].

In the case of `CCn1cc(-n2c(=O)n(C)c3cnc4ccc(-c5cnc(NC)c(Cl)c5)cc4c32)c(C)n1` [Example 146.2, 8-(5-Chloro-6-methylamino-pyridin-3-yl)-1-(1-ethyl-3-methyl-1H-pyrazol-4-yl)-3-methyl-1,3-dihydro-imidazo[4,5-c]quinolin-2-one], the solubility in “Solubility at pH 6.8” amounted to 6 µg/mL (≈ 13.4 µM). Besides, the IC50 at PI3K beta was 66 nM; on PI3K delta, 30 nM; in series [1], 11 nM; in series [2] it was 18 nM.

As to `CCOc1ccc(-c2ccc3ncc4c(c3c2)n(-c2cn(CC(=O)N3CCOCC3)nc2C)c(=O)n4C)cn1` [Example 3.10, 8-(6-Ethoxy-pyridin-3-yl)-3-methyl-1-[3-methyl-1-(2-morpholin-4-yl-2-oxo-ethyl)-1H-pyrazol-4-yl]-1,3-dihydro-imidazo[4,5-c]quinolin-2-one], the solubility in the series “Solubility at pH 6.8” turned out to be 26 µg/mL (≈ 49.3 µM). The figures for the IC50 (at PI3K delta; in series [1]; in series [2]) were 431 nM, 70 nM and 84 nM, respectively.

As for `Cc1nn(C)cc1-n1c(=O)n(C)c2cnc3ccc(-c4ccc(N5CC[C@@H](O)C5)nc4)cc3c21` [Example 212.1, 1-(1,3-Dimethyl-1H-pyrazol-4-yl)-8-[6-((R)-3-hydroxy-pyrrolidin-1-yl)-pyridin-3-yl]-3-methyl-1,3-dihydro-imidazo[4,5-c]quinolin-2-one], in “Solubility at pH 6.8”, the solubility was found to be 55 µg/mL (≈ 121 µM). The IC50 at PI3K delta was determined as 111 nM; in series [1], 199 nM; in series [2] it was 768 nM.

Turning to `Cc1nn(C)cc1-n1c(=O)n(C)c2cnc3ccc(-c4cnc5c(c4)nc(N(C)C)n5C)cc3c21` [Example 70, 8-(2-Dimethylamino-3-methyl-3H-imidazo[4,5-b]pyridin-6-yl)-1-(1,3-dimethyl-1H-pyrazol-4-yl)-3-methyl-1,3-dihydro-imidazo[4,5-c]quinolin-2-one], in “Solubility at pH 6.8”, the solubility is 47 µg/mL (≈ 101 µM). The IC50 was determined as 163 nM at PI3K delta, 176 nM in series [1] and 275 nM in series [2].

As for `Cc1nn(C(C)C)cc1-n1c(=O)n(C)c2cnc3ccc(-c4ccc(N5CCC5)nc4)cc3c21` [Example 5.2, 8-(6-Azetidin-1-yl-pyridin-3-yl)-1-(1-isopropyl-3-methyl-1H-pyrazol-4-yl)-3-methyl-1,3-dihydro-imidazo[4,5-c]quinolin-2-one], the solubility in “Solubility at pH 6.8” is 7 µg/mL (≈ 15.4 µM). In addition, the results for the IC50 (at PI3K delta; in series [1]; in series [2]) were 53 nM, 22 nM and 27 nM, respectively.

For the molecule `CCN(CC)C(=O)Cn1cc(-n2c(=O)n(C)c3cnc4ccc(-c5ccc(C)nc5)cc4c32)c(C)n1` [Example 139, N,N-Diethyl-2-{3-methyl-4-[3-methyl-8-(6-methyl-pyridin-3-yl)-2-oxo-2,3-dihydro-imidazo[4,5-c]quinolin-1-yl]-pyrazol-1-yl}-acetamide], the solubility in “Solubility at pH 6.8” was > 484 µg/mL. In addition, the concentration for half-maximal inhibition (IC50) turned out to be 69 nM on PI3K delta, 39 nM in series [1] and 70 nM in series [2].

For `CCOc1ccc(-c2ccc3ncc4c(c3c2)n(-c2c(C)nn(CC(=O)N(C)C)c2C)c(=O)n4C)cn1` [Example 3.12, 2-{4-[8-(6-Ethoxy-pyridin-3-yl)-3-methyl-2-oxo-2,3-dihydro-imidazo[4,5-c]quinolin-1-yl]-3,5-dimethyl-pyrazol-1-yl}-N,N-dimethyl-acetamide], the solubility in “Solubility at pH 6.8” is > 500 µg/mL. Further, the IC50 was 721 nM on PI3K delta, 166 nM in series [1] and 211 nM in series [2].

For the molecule `COCCn1c(=O)n(C)c2ncc(-c3ccc4ncc5c(c4c3)n(-c3cn(C)nc3C)c(=O)n5C)cc21` [Example 69, 1-(1,3-Dimethyl-1H-pyrazol-4-yl)-8-[1-(2-methoxy-ethyl)-3-methyl-2-oxo-2,3-dihydro-1H-imidazo[4,5-b]pyridin-6-yl]-3-methyl-1,3-dihydro-imidazo[4,5-c]quinolin-2-one], the solubility in “Solubility at pH 6.8” is 3 µg/mL (≈ 6.02 µM). In addition, the IC50 was determined as 129 nM on PI3K beta, 36 nM on PI3K delta and 810 nM in series [2].

As for `Cc1nn(CC(=O)N(C)C)cc1-n1c(=O)n(C)c2cnc3ccc(-c4ccc(-n5cccn5)cc4)cc3c21` [Example 51.2, N,N-Dimethyl-2-{3-methyl-4-[3-methyl-2-oxo-8-(4-pyrazol-1-yl-phenyl)-2,3-dihydro-imidazo[4,5-c]quinolin-1-yl]-pyrazol-1-yl}-acetamide], in “Solubility at pH 6.8”, the solubility came to 4 µg/mL (≈ 7.9 µM). Further, the values for the IC50 (on PI3K delta; in series [1]; in series [2]) were 453 nM, 6 nM and 22 nM, respectively.

As for `CCOc1ccc(-c2ccc3ncc4c(c3c2)n(-c2cn(CC(=O)N(C)CC)nc2C)c(=O)n4C)cn1` [Example 136, 2-{4-[8-(6-Ethoxy-pyridin-3-yl)-3-methyl-2-oxo-2,3-dihydro-imidazo[4,5-c]quinolin-1-yl]-3-methyl-pyrazol-1-yl}-N-ethyl-N-methyl-acetamide], the solubility in “Solubility at pH 6.8” was found to be 141 µg/mL (≈ 282 µM). The results for the IC50 (at PI3K delta; in series [1]; in series [2]) were 214 nM, 16 nM and 66 nM, respectively.

As for `CCc1ncc(-c2ccc3ncc4c(c3c2)n(-c2cn(C)nc2C)c(=O)n4C)cc1NC(C)C` [Example 162, 1-(1,3-Dimethyl-1H-pyrazol-4-yl)-8-(6-ethyl-5-isopropylamino-pyridin-3-yl)-3-methyl-1,3-dihydro-imidazo[4,5-c]quinolin-2-one], the solubility in the series “Solubility at pH 6.8” is > 456 µg/mL. In addition, the values for the IC50 (on PI3K beta; on PI3K delta; in series [1]) were 20 nM, 10 nM and < 5 nM, respectively.

Consider `COCCN(C)C(=O)Cn1cc(-n2c(=O)n(C)c3cnc4ccc(-c5ccccc5)cc4c32)c(C)n1` [Example 137, N-(2-Methoxy-ethyl)-N-methyl-2-[3-methyl-4-(3-methyl-2-oxo-8-phenyl-2,3-dihydro-imidazo[4,5-c]quinolin-1-yl)-pyrazol-1-yl]-acetamide], for which the solubility in the series “Solubility at pH 6.8” was determined as 427 µg/mL (≈ 881 µM). Moreover, the IC50 on PI3K delta amounted to 922 nM; in series [1] it was 428 nM; in series [2] it was 595 nM.

Consider `CCOc1cncc(-c2ccc3ncc4c(c3c2)n(-c2c(C)cnn2C)c(=O)n4C)c1` [Example 56.5, 1-(2,4-Dimethyl-2H-pyrazol-3-yl)-8-(5-ethoxy-pyridin-3-yl)-3-methyl-1,3-dihydro-imidazo[4,5-c]quinolin-2-one], for which the solubility in “Solubility at pH 6.8” is 16 µg/mL (≈ 38.6 µM). Also, the IC50 on PI3K beta was 193 nM; at PI3K delta it was 196 nM.

In general, solubility refers to the dissolved amount per volume that the medium holds. Broadly, the IC50 is the point on the concentration scale where inhibition reaches its midpoint.
